The compounds below were run against hKv1.5 (Homo sapiens, UniProt P22460) (assay: Kv1.5 Autopatch Electrophysiology (whole cell patch-clamp)). Conditions: compound at 1µM, room temperature (22-24°C), held at -80mV, step to 0mV for 1000ms, total charge measured.
hKv1.5, sequence (P22460 whole entry): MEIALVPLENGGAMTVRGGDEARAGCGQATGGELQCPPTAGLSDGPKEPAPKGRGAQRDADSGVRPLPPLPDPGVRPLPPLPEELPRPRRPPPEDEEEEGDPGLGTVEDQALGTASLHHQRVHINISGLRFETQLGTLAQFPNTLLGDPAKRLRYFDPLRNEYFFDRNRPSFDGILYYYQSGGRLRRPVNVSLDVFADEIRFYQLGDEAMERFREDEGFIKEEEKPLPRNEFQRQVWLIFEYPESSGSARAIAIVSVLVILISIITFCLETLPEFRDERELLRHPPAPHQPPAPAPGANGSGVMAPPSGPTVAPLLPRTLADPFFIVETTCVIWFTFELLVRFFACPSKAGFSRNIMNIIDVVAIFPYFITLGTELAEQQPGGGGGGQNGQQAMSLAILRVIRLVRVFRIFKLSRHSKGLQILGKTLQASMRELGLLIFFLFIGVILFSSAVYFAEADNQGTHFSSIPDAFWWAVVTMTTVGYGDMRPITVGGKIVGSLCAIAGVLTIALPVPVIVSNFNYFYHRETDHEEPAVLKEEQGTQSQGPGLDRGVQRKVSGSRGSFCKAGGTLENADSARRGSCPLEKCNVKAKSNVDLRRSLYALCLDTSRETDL
Assay type: cell-based
Protocol: The external bathing solution contained (in mM): 150 NaCl, 10 KCl, […], 3 MgCl2, 1 CaCl2, 10 HEPES, pH 7.4. Patch pipettes were filled with an electrode solution of composition (in mM): 160 KCl, 0.5 MgCl2, 10 HEPES, 1 EGTA, pH 7.4 with KOH.
Compounds were dissolved in DMSO (100 %) and made up in the external bather at a concentration of 1µM. All experiments were conducted at room temperature (22-24°C).
A cell suspension (10 ml), with a density of 100,000 cells/ml, was aliquoted into a 15ml centrifuge tube and transferred to an incubator (37°C, 5% CO2) for approximately one hour before use. Following 60 min incubation, a tube was taken and centrifuged at 1000 rpm for 4 mins at room temperature. 9.5 ml supernatant was thence discarded, leaving a cell pellet at the bottom of the tube. The pellet was then resuspended using 100 µl of cold (4 °C), filtered (0.22 µm), 0.2 % BSA/bather solution (0.02g BSA/10ml bather). The bottom of the tube was manually agitated gently until the solution became cloudy with cells. The 100 µl cell resuspension solution was then stored on the bench at 4 °C (using a Peltier-based temperature control device) until used.
A length of capillary glass (1B150F-4, WPI) was dipped into the cell suspension solution, such that - 3 cm column of fluid was taken up by capillary action. A Ag/AgCl wire was dropped into the non-dipped end of the capillary also. The outside of the solution-filled end of the capillary was then dried and the capillary was loaded into the AutoPatch™. Borosilicate glass patch pipettes (from 1.5mm OD, thin-walled filamented, GC150-TF capillary glass, Harvard) were pulled using a DMZ pipette puller (Zeitz Instruments), and were back-filled using the internal pipette solution, being careful that no bubbles remain at the tip or in the body of the pipette. Patch pipettes typically had resistances of 2.3-3.5 MΩ. Once filled, the pipette tip and a proportion of the shaft (- 15 mm) were dipped into Sigmacote (Sigma). The recording pipette was then loaded into the AutoPatch™.
Automated patch-clamping was initiated by the operator, but thereafter AutoPatch.exe continued the experiment providing that pre-set conditions and criteria were satisfied.
Whole cell patch-clamp recordings were made using the AutoPatch™ rig, which incorporated an EPC9 amplifier (HEKA, Germany) under control of Pulse software (v8.54, HEKA, Germany), a motion controller with 2 translators (Newport, UK), valve controller (VF1) and a c-level suction device all at room temperature (22-24°C). This equipment was completely under the control of AutoPatch.exe and operator intervention was only made when there was a requirement to refill the drug reservoirs or to prevent the loss of a cell due to a technical error. Cells with an Rseries greater than 18 MΩ were discounted from the experiment.
Qualification stages prior to perfusion and drug application ensured that the observed current met the criteria for the experiment. Only those cells with an IK > 500 pA were used for experiments. Cells were continuously perfused with external solution at a flow rate of 1.8-2 ml/minute. […] Online analysis of the hKv1.5 current during the application of compounds was performed by the AutoPatch™ software. Voltage-step protocols and analysis of data was performed as described for conventional electrophysiology.
Electrophysiology voltage-step protocols and analysis of data was performed as follows. Data was sampled at 5kHz, and filtered with a -3 dB bandwidth of 2.5kHz. Cells were held at a voltage of -80mV. Currents were evoked to a voltage step for 1000ms in duration at 0mV every 5s. Currents were analysed using Pulsefit software (v8.54, HEKA, Germany), with the total charge measured during the whole of the voltage step. All other plots were produced using Igor Pro (WaveMetrics).
Work on COCc1nc(NCc2ccccn2)c2c(-c3ccccc3)csc2n1 [Example 305, (2-Methoxymethyl-5-phenylthien[2,3-d]primidin-4-yl)pyridin-2-ylmethylamine] yielded an inhibition at 1 µM of 94%. With CN(C)c1ccc(-c2csc3ncnc(NCc4ccccn4)c23)cc1 [Example 315, [5-(4-Dimethylamino-phenyl)-thieno[2,3-d]pyrimidin-4-yl]-pyridin-2-ylmethyl-amine] the inhibition at 1 µM was 98%. COC(=O)c1ccc(-c2csc3ncnc(NCc4ccccn4)c23)cc1 [Example 327, 4-{4-[(Pyridin-2-ylmethyl)-amino]-thieno[2,3-d]pyrimidin-5-yl}-benzoic acid methyl ester] gave an inhibition at 1 µM of 83%. CN1CCN(c2nc(NCc3ccccn3)c3c(-c4ccccc4)csc3n2)CC1 [Example 215, [2-(4-Methyl-piperazin-1-yl)-5-phenyl-thieno[2,3-d]pyrimidin-4-yl]-pyridin-2-ylmethyl-amine] gave an inhibition at 1 µM of 82%. FC(F)(F)Oc1ccc(-c2csc3ncnc(NCc4ccccn4)c23)cc1 [Example 317, Pyridin-2-ylmethyl-[5-(4-trifluoromethoxy-phenyl)-thieno[2,3-d]pyrimidin-4-yl]-amine] gave an inhibition at 1 µM of 98%. Cc1cccc(CNc2ncnc3sc(C)c(-c4ccccc4)c23)n1 [Example 166, 6-methyl-N-[(6-methylpyridin-2-yl)methyl]-5-phenylthieno[2,3-d]pyrimidin-4-amine] was tested, and the inhibition at 1 µM was 97%. CNCc1nc(NCc2ccccn2)c2c(-c3ccccc3)csc2n1 [Example 304, (2-Methylaminomethyl-5-phenyl-thieno[2,3-d]pyrimidin-4-yl)-pyridin-2-ylmethyl-amine] gave an inhibition at 1 µM of 58%. Cc1ccc(-c2csc3ncnc(NCc4ccccn4)c23)cc1 [Example 318, Pyridin-2-ylmethyl-(5-p-tolyl-thieno[2,3-d]pyrimidin-4-yl)-amine] showed an inhibition at 1 µM of 98%. Work on CNC(=O)Cc1nc(NCc2ccccn2)c2c(-c3ccccc3)csc2n1 [Example 287, N-Methyl-2-{5-phenyl-4-[{pyridin-2-ylmethyl)amino]thieno[2,3-d]pyrimidin-2-yl}acetamide] yielded an inhibition at 1 µM of 91%. Cc1cccc(CNc2ncnc3sc(Br)c(-c4ccccc4)c23)n1 [Example 167, 6-bromo-N-[(6-methylpyridin-2-yl)methyl]-5-phenylthieno[2,3-d]pyrimidin-4-amine] showed an inhibition at 1 µM of 99%. CN(C)c1nc(NCc2ccccn2)c2c(-c3ccccc3)csc2n1 [Example 198, N^2,N^2-Dimethyl-5-phenyl-N^4-pyridin-2-ylmethyl-thieno[2,3-d]pyrimidine-2,4-diamine] gave an inhibition at 1 µM of 98.1%. With COc1ccc(-c2csc3ncnc(NCc4ccccn4)c23)cc1 [Example 138, [5-(4-Methoxy-phenyl)-thieno[2,3-d]pyrimidin-4-yl]-pyridin-2-ylmethyl-amine] the inhibition at 1 µM was 92.6%. In the case of COc1ccc(-c2csc3ncnc(NCc4ccccn4)c23)cn1 [Example 328, [5-(6-Methoxy-pyridin-3-yl)-thieno[2,3-d]pyrimidin-4-yl]-pyridin-2-ylmethyl-amine], the inhibition at 1 µM is reported as 83%. For FC(F)(F)c1cc(-c2csc3ncnc(NCc4ccccn4)c23)ccc1Cl [Example 330, [5-(4-Chloro-3-trifluoromethyl-phenyl)-thieno[2,3-d]pyrimidin-4-yl]-pyridin-2-ylmethyl-amine], the inhibition at 1 µM was 79%. In the case of Cc1ccc(-c2csc3ncnc(NCc4ccccn4)c23)cc1C [Example 316, [5-(3,4-Dimethyl-phenyl)-thieno[2,3-d]pyrimidin-4-yl]-pyridin-2-ylmethyl-amine], the inhibition at 1 µM is reported as 98%. COCCNc1nc(NCc2ccccn2)c2c(-c3ccccc3)csc2n1 [Example 189, N^2-(2-Methoxyethyl)-5-phenyl-N^4-(pyridin-2-ylmethyl)thieno[2,3-d]pyrimidine-2,4-diamine] showed an inhibition at 1 µM of 97.4%. Work on CC(Nc1ncnc2scc(-c3ccccc3)c12)c1ccccn1 (centres unmarked) [Example 149, (5-Phenyl-thieno[2,3-d]pyrimidin-4-yl)-(1-pyridin-2-yl-ethyl)-amine] yielded an inhibition at 1 µM of 78%.
